Measured values reported in patent US8476256B2, “Diazonamide analogs” (Joyant Pharmaceuticals, Inc., priority 2008, dated 2013).
pIC50: −log10 of the molar value.

What was measured:
[1] = system: U937 (human leukemic monocyte lymphoma) cell line; experiment: Cell viability assay (CELL-TITER-GLO), U937; type: cell-based; details: U-937, U937 cells, 48 hour treatment, 1 nM to 1 μM
Experimental: (§1) Cell viability assays were run using standard protocols known to those of skill in art. Cells were plated in 96 well plates at the density of 3,000-10,000 cells per well. Twenty four hours later, cells were treated with increasing concentration of test compounds (1 nM to 1 μM). After another 48 hour, cell survival was measured using CELL-TITER-GLO® reagent (Promega) following the protocol provided by the manufacture. The IC50 value was determined as the concentration of test compound that kills 50% of the cell population.
(§2) Cell viability data generated according to the protocol described herein was generated for representative compounds in the A2058 (human melanoma) and U937 (human leukemic monocyte lymphoma) cell lines. The compound of Example 16 (“Compound J”) was used as a reference compound.

[2] = system: A2058 (human melanoma) cell line; experiment: Cell viability assay (CELL-TITER-GLO), A2058; type: cell-based; details: A2058 cells, 48 hour treatment, 1 nM to 1 μM
Experimental: as §1, §2

[3] = system: MiaPaca (pancreatic cancer) cells; experiment: MiaPaca xenograft model, tumor free animals; type: in vivo, Athymic nude mice; details: 20 mg/kg, tail vein injection, 6 injections (days 9, 11, 14, 16, 18, 21), at 35 days post tumor cell injection, 7 mice/group
Experimental: Animals: Athymic nude mice, female, 6-7 weeks old, 20-25 g. Animals bearing with 180-400 mg tumors were selected for experiment. 7 mice/group.
Administration: Tail vein injection, 200 μL/mouse, to provide the dose indicated.
Dosing schedule: 6 injections were given on the days indicated post-tumor cell injection.
Controls: Vehicle, Compound J at 20 mg/kg.
Test Compound preparation: Compound J and all test compounds were dissolved in 50% Cremophore/EtOH (1:1) at 10 mg/mL as stock solution. Each compound solution was diluted with saline before injection to the concentration indicated.
Xenograft Model: MiaPaca (pancreatic cancer) cells
Dosing schedule: 6 injections were given on days 9, 11, 14, 16, 18 and 21 post-tumor cell injection.
Test Compounds: Example 23, Example 24, and Example 53, at 20 mg/kg.
For animals treated with the compound of Example 24 at 20 mg/kg, 7 of 7 animals were tumor free at 35 days post tumor cell injection.

[4] = system: SKMES-1 tumor cell line (Lung); experiment: Cell profiling, SKMES-1; type: cell-based; details: Homo sapiens, SK-MES-1; SKMES-1, Lung
Experimental: as §1

[5] = system: A2058 (human melanoma) cell line; experiment: Cell viability assay (CELL-TITER-GLO), A2058; type: cell-based; details: Table 8 cell profiling, A2058, Skin
[6] = system: MDA-MB231 tumor cell line (Breast); experiment: Cell profiling, MDA-MB231; type: cell-based; details: Homo sapiens, MDA-MB-231
Experimental: as §1

[7] = system: DU145 tumor cell line (Prostate); experiment: Cell profiling, DU145; type: cell-based; details: Homo sapiens, DU-145
Experimental: as §1

[8] = system: T98G tumor cell line (Glial Cells); experiment: Cell profiling, T98G; type: cell-based; details: Homo sapiens
Experimental: as §1

[9] = system: DLD-1 tumor cell line (Colon); experiment: Cell profiling, DLD-1; type: cell-based; details: Homo sapiens; DLD-1, Colon
Experimental: as §1

[10] = system: SKMEL-5 tumor cell line (Skin); experiment: Cell profiling, SKMEL-5; type: cell-based; details: Homo sapiens, SK-MEL-5; SKMEL-5, Skin
Experimental: as §1

[11] = system: NCI-H460 tumor cell line (Lung); experiment: Cell profiling, NCI-H460; type: cell-based; details: Homo sapiens
Experimental: as §1

[12] = system: A375 tumor cell line (Skin); experiment: Cell profiling, A375; type: cell-based; details: Homo sapiens, A-375
Experimental: as §1

[13] = system: U937 (human leukemic monocyte lymphoma) cell line; experiment: Cell viability assay (CELL-TITER-GLO), U937; type: cell-based; details: U-937, Table 8 cell profiling, U937, Blood
[14] = system: MDA-MB435 tumor cell line (Breast); experiment: Cell profiling, MDA-MB435; type: cell-based; details: Homo sapiens, MDA-MB-435
Experimental: as §1

[15] = system: Lovo tumor cell line (Colon); experiment: Cell profiling, Lovo; type: cell-based; details: Homo sapiens
Experimental: as §1

[16] = system: HCC44 tumor cell line (Lung); experiment: Cell profiling, HCC44; type: cell-based; details: Homo sapiens
Experimental: as §1

[17] = system: Panc-1 tumor cell line (Pancreas); experiment: Cell profiling, Panc-1; type: cell-based; details: Homo sapiens; Panc-1, Pancreas
Experimental: as §1

[18] = system: BxPC3 tumor cell line (Pancreas); experiment: Cell profiling, BxPC3; type: cell-based; details: Homo sapiens, BXPC-3
Experimental: as §1

[19] = system: Colo205 tumor cell line (Colon); experiment: Cell profiling, Colo205; type: cell-based; details: Homo sapiens, COLO 205
Experimental: as §1

[20] = system: G361 tumor cell line (Skin); experiment: Cell profiling, G361; type: cell-based; details: Homo sapiens, G-361
Experimental: as §1

[21] = system: HT29 tumor cell line (Colon); experiment: Cell profiling, HT29; type: cell-based; details: Homo sapiens, HT-29
Experimental: as §1

[22] = system: MiaPaca-2 tumor cell line (Pancreas); experiment: Cell profiling, MiaPaca-2; type: cell-based; details: Homo sapiens, MIA PaCa-2; MiaPaca-2, Pancreas
Experimental: as §1

[23] = system: NCI-H226 tumor cell line (Lung); experiment: Cell profiling, NCI-H226; type: cell-based; details: Homo sapiens
Experimental: as §1

[24] = system: SW1990 tumor cell line (Pancreas); experiment: Cell profiling, SW1990; type: cell-based; details: Homo sapiens
Experimental: as §1

[25] = system: HCC1437 tumor cell line (Lung); experiment: Cell profiling, HCC1437; type: cell-based
Experimental: as §1

[26] = system: PL45 tumor cell line (Pancreas); experiment: Cell profiling, PL45; type: cell-based
Experimental: as §1

CC(C)[C@@H]1NC(=O)C(NC(=O)[C@H]2CCOC2)Cc2ccc3c(c2)[C@]24C5=C(N=C1O5)c1ncc(o1)-c1c[nH]c5cccc(c15)-c1cccc2c1NC4O3 (stereo partly shown) [Example 53]
IC50 [1]: 0.078 µM
IC50 [2]: 0.209 µM
Tumor-free animals out of 7 [3]: 1/7 (35)

CCC(O)(CC)C(=O)N[C@H]1Cc2ccc3c(c2)C24C5=C(N=C(O5)[C@H](C(C)C)NC1=O)c1ncc(o1)-c1c[nH]c5cccc(c15)-c1cccc2c1NC4O3 (stereo in doubt) [Example 24]
pIC50 [4]: 6.33
pIC50 [5]: 7.03
pIC50 [6]: 6.63
pIC50 [7]: 7.24
pIC50 [8]: 7.17
pIC50 [9]: 6.29
pIC50 [10]: 7.15
pIC50 [11]: 6.62
pIC50 [12]: 6.79
IC50 [1]: 0.062 µM
pIC50 [13]: 7.36
pIC50 [14]: 7.54
pIC50 [15]: 6.82
pIC50 [16]: 7.44
pIC50 [17]: 6.54
pIC50 [18]: 6.67
IC50 [2]: 0.105 µM
Tumor-free animals out of 7 [3]: 7 of 7
Tumor-free animals out of 7 ([3]; listed as Ex. 24): 7/7 (35)
pIC50 [19]: 6.84
pIC50 [20]: 6.56
pIC50 [21]: 7.05
pIC50 [22]: 6.95
pIC50 [23]: 6.98
pIC50 [24]: 6.44
pIC50 [25]: 6.71
pIC50 [26]: 6.95

CCC(C)(O)C(=O)NC1Cc2ccc3c(c2)[C@]24C5=C(N=C(O5)[C@H](C(C)C)NC1=O)c1ncc(o1)-c1c[nH]c5cccc(c15)-c1cccc2c1NC4O3 (stereo partly shown) [Example 23]
IC50 [1]: 0.156 µM
IC50 [2]: 0.124 µM
Tumor-free animals out of 7 [3]: 0/7 (35)

CC(C)[C@H](O)C(=O)N[C@H]1Cc2ccc3c(c2)[C@]24C5=C(N=C(O5)[C@H](C(C)C)NC1=O)c1ncc(o1)-c1c[nH]c5cccc(c15)-c1cccc2c1NC4O3 (stereo partly shown) [Example 16, reference compound]
IC50 [1]: 0.034 µM
IC50 [2]: 0.043 µM
Tumor-free animals out of 7 [3]: 0/7 (35)

CCCSC(=O)NC1Cc2ccc3c(c2)[C@]24C5=C(N=C(O5)[C@H](C(C)C)NC1=O)c1ncc(o1)-c1c[nH]c5cccc(c15)-c1cccc2c1NC4O3 (stereo partly shown) [Example 72]
IC50 [1]: 0.543 µM
IC50 [2]: 0.6 µM

CC(C)C(Br)C(=O)NC1Cc2ccc3c(c2)[C@]24C5=C(N=C(O5)[C@H](C(C)C)NC1=O)c1ncc(o1)-c1c[nH]c5cccc(c15)-c1cccc2c1NC4O3 (stereo partly shown) [Example 46]
IC50 [1]: 0.443 µM
IC50 [2]: 0.313 µM

CC(C)[C@@H]1NC(=O)C(NC(C[N+](=O)[O-])C(F)(F)F)Cc2ccc3c(c2)C24C5=C(N=C1O5)c1ncc(o1)-c1c[nH]c5cccc(c15)-c1cccc2c1N[C@H]4O3 (stereo partly shown) [Example 92]
IC50 [1]: 0.75 µM
IC50 [2]: > 1 µM

CC(C)[C@@H]1NC(=O)C(NC(=O)c2cccs2)Cc2ccc3c(c2)[C@]24C5=C(N=C1O5)c1ncc(o1)-c1c[nH]c5cccc(c15)-c1cccc2c1NC4O3 (stereo partly shown) [Example 63]
IC50 [1]: 0.206 µM
IC50 [2]: 0.488 µM

CC(C)[C@H](N)C(=O)N[C@H]1Cc2ccc3c(c2)C24C5=C(N=C(O5)[C@H](C(C)C)NC1=O)c1ncc(o1)-c1c[nH]c5cccc(c15)-c1cccc2c1N[C@H]4O3 (stereo partly shown) [Example 33]
IC50 [1]: 0.572 µM
IC50 [2]: 1.44 µM

CC(C)[C@@H]1NC(=O)C(NC(=O)C(C)(C)C)Cc2ccc3c(c2)[C@]24C5=C(N=C1O5)c1ncc(o1)-c1c[nH]c5cccc(c15)-c1cccc2c1NC4O3 (stereo partly shown) [Example 60]
IC50 [1]: 0.255 µM
IC50 [2]: 0.538 µM

CC(=O)N[C@H](C(=O)N[C@H]1Cc2ccc3c(c2)C24C5=C(N=C(O5)[C@H](C(C)C)NC1=O)c1ncc(o1)-c1c[nH]c5cccc(c15)-c1cccc2c1N[C@H]4O3)C(C)C (stereo partly shown) [Example 35]
IC50 [1]: 0.183 µM
IC50 [2]: 0.232 µM

C#CCOC(=O)NC1Cc2ccc3c(c2)[C@]24C5=C(N=C(O5)[C@H](C(C)C)NC1=O)c1ncc(o1)-c1c[nH]c5cccc(c15)-c1cccc2c1NC4O3 (stereo partly shown) [Example 70]
IC50 [1]: 0.434 µM
IC50 [2]: 0.692 µM

CC(C)C1NC(=O)[C@@H](NC(=O)[C@@H]2C[C@@H](O)CN2)Cc2ccc3c(c2)C24C5=C(N=C1O5)c1ncc(o1)-c1c[nH]c5cccc(c15)-c1cccc2c1N[C@H]4O3 (stereo partly shown) [Example 37]
IC50 [1]: > 1 µM
IC50 [2]: > 1 µM

CC(C)[C@@H]1NC(=O)C(NC(=O)C2CCCC2)Cc2ccc3c(c2)[C@]24C5=C(N=C1O5)c1ncc(o1)-c1c[nH]c5cccc(c15)-c1cccc2c1NC4O3 (stereo partly shown) [Example 50]
IC50 [1]: 0.331 µM
IC50 [2]: 0.339 µM

CC(C)[C@@H]1NC(=O)C(NC(=O)[C@@H]2CCOC2)Cc2ccc3c(c2)[C@]24C5=C(N=C1O5)c1ncc(o1)-c1c[nH]c5cccc(c15)-c1cccc2c1NC4O3 (stereo partly shown) [Example 54]
IC50 [1]: 0.078 µM
IC50 [2]: 0.081 µM
